According to patent publication US6004992A, “Aminocarboxylic acid fluorobutenyl esters” (Bayer Aktiengesellschaft, priority 1995, dated 1999):

Columns and labels:
Meloidogyne incognita = assay: Critical Concentration Test/nematodes; assay type: in vivo; conditions: 20 ppm (=mg/l soil), four weeks, 25° C., 100% = infestation avoided completely
Description: Critical Concentration Test/nematodes
Test nematode: Meloidogyne incognita
Solvent: 4 parts by weight of acetone
Emulsifier: 1 part by weight of alkylaryl polyglycol ether
To produce a suitable preparation of active compound, 1 part by weight of active compound is mixed with the stated amount of solvent, the stated amount of emulsifier is added and the concentrate is diluted with water to the desired concentration.
The active compound preparation is intimately mixed with soil which is heavily infested with the test nematodes. The active compound concentration in the preparation is immaterial, only the amount of active compound per unit volume of soil, which is given in ppm (=mg/l), matters. The treated soil is transferred into pots, lettuce is sown in, and the pots are kept at a greenhouse temperature of 25° C.
After four weeks, the lettuce roots are checked for infestation with nematodes (root galls) and the efficacy of the active compound in % is determined. The efficacy is 100% when infestation is avoided completely and 0% when the infestation level is just as high as in the control plants in untreated, but equally infested, soil.

log p (pH 2) = assay type: physicochemical
[1] = system: Boophilus Microplus Resistent/SP-resistent Parkhurst Strain; assay: Test with Boophilus Microplus Resistent/SP-resistent Parkhurst Strain (inhibition of oviposition); assay type: in vivo; conditions: 20 μg/animal; 1 μl injected into the abdomen, adult females; 100% = no tick has deposited eggs
Description: Test with Boophilus Microplus Resistent/SP-resistent Parkhurst Strain
Test animals: Adult females which have sucked themselves full
Solvent: Dimethyl sulphoxide
20 mg of active compound are dissolved in 1 ml of dimethyl sulphoxide, and lower concentrations are prepared by diluting in the same solvent.
The test is carried out in 5 replications. 1 μl of the solutions is injected into the abdomen, and the animals are transferred into dishes and kept in an air-conditioned room. The activity is determined via the inhibition of oviposition. 100% means that no tick has deposited eggs.

logD (log p (pH 2))	Structure (SMILES)	further results
3.31	O=C(OCCC(F)=C(F)F)C1CCCN1C(=O)OCc1ccccc1 (stereo not drawn) [Ic-1]	
1.32	O=CNC1(C(=O)OCCC(F)=C(F)F)CC1 [Ib-14]	

More lines, now with the values behind:

Structure (SMILES)	logD (log p (pH 2))	further results
CC(=O)NC(=Cc1ccccc1)C(=O)OCCC(F)=C(F)F [Example Ia-2]		efficacy of the active compound in % (nematode infestation of lettuce roots, root galls) (Meloidogyne incognita): 100%
C[C@H](NC(=O)c1c(F)cccc1F)C(=O)OCCC(F)=C(F)F [Example Ib-2, 3,4,4-trifluorobut-3-enyl N-(2,6-difluorobenzoyl)-alaninate]	2.42	
CC(=O)NC(=Cc1cccs1)C(=O)OCCC(F)=C(F)F [Example Ia-4]		activity (inhibition of oviposition) [1]: 100%
O=C(CNC(=O)c1ccccc1)OCCC(F)=C(F)F [Ib-6]	2.09	
